In ChEMBL document CHEMBL4417631, “Oral peptide inhibitors of interleukin-23 receptor and their use to treat inflammatory bowel diseases” (2017):

What was measured:
Interleukin-23 receptor [1] = target: T1, Interleukin-23 receptor (Homo sapiens, UniProt Q5VWK5); test: Inhibition of interleukin-23 binding to human interleukin-23 receptor incubated for 2 hrs by competitive binding ELISA
T1 sequence (Q5VWK5 whole entry): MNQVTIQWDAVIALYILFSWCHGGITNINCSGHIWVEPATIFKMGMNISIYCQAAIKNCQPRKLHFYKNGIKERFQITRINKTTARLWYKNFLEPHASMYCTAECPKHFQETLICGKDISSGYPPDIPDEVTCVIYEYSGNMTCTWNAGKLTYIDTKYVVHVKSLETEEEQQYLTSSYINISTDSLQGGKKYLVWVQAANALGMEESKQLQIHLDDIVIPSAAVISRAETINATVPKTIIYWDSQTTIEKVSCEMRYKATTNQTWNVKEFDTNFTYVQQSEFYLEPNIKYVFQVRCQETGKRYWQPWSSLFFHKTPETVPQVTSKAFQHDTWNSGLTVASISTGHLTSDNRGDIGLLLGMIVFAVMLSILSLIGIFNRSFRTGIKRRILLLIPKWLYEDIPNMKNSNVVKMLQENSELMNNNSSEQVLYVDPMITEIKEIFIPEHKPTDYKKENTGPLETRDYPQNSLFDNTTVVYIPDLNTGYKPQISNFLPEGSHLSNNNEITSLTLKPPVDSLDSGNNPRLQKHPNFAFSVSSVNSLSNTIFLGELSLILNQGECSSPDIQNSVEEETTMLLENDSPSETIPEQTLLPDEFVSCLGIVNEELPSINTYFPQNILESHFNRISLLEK

[2] = Half life in simulated intestinal fluid at 20 uM by LC-MS/MS analysis; type: ADME
Interleukin-23 receptor [3] = target: T1, Interleukin-23 receptor; test: Inhibition of interleukin-23 receptor in human DB cells assessed as reduction in IL-23-stimulated STAT3 phosphorylation incubated for 30 mins by HTRF assay; type: cell-based
[4] = Half life in simulated gastric fluid at 20 uM by LC-MS/MS analysis; type: ADME

IC50 (Interleukin-23 receptor [1])	half-life at 20 µM [2]	IC50 (Interleukin-23 receptor [3])	half-life at 20 µM [4]	Compound
< 10 nM	< 1 h	< 10 nM	2 to 3 h	CC(=O)N[C@H]1CCSC[C@@H](C(=O)N[C@@H](Cc2ccc(OCCN)cc2)C(=O)N[C@@H](Cc2ccc3ccccc3c2)C(=O)NC(C)(C)C(=O)N[C@@H](CCC(=O)O)C(=O)N[C@@H](CC(N)=O)C(=O)NCC(N)=O)NC(=O)[C@H](CCC(N)=O)NC(=O)[C@H](Cc2c[nH]c3ccccc23)NC(=O)[C@H]([C@@H](C)O)NC(=O)[C@H](CCC(N)=O)NC1=O
< 10 nM	> 6 h	< 10 nM	> 6 h	CC(=O)NCCCC[C@H](NC(=O)[C@](C)(CCCCNC(C)=O)NC(=O)[C@H](Cc1ccc2ccccc2c1)NC(=O)[C@H](Cc1ccc(OCCNC(C)=O)cc1)NC(=O)[C@@H](NC(=O)[C@H](CCC(N)=O)NC(=O)[C@H](Cc1c[nH]c2ccccc12)NC(=O)[C@@H](NC(=O)[C@H](CCC(N)=O)NC(=O)[C@@H](NC(C)=O)C(C)(C)S)[C@@H](C)O)C(C)(C)S)C(=O)N[C@@H](CC(N)=O)C(=O)NCC(N)=O
< 10 nM	> 6 h	< 10 nM	> 6 h	CC(=O)NCCCC[C@H](NC(=O)C(C)(C)NC(=O)[C@H](Cc1ccc2ccccc2c1)NC(=O)[C@H](Cc1ccc(OCCNC(C)=O)cc1)NC(=O)[C@@H](NC(=O)[C@H](CCC(N)=O)NC(=O)[C@H](Cc1c[nH]c2ccccc12)NC(=O)[C@@H](NC(=O)[C@H](CCC(N)=O)NC(=O)[C@@H](NC(C)=O)C(C)(C)S)[C@@H](C)O)C(C)(C)S)C(=O)N[C@@H](CC(N)=O)C(=O)N[C@@H](CCC(N)=O)C(N)=O
< 10 nM	> 6 h	< 10 nM	> 6 h	CC(=O)NCCCC[C@H](NC(=O)C(C)(C)NC(=O)[C@H](Cc1ccc2ccccc2c1)NC(=O)[C@H](Cc1ccc(OCCN)cc1)NC(=O)[C@@H](NC(=O)[C@H](CCC(N)=O)NC(=O)[C@H](Cc1c[nH]c2ccccc12)NC(=O)[C@@H](NC(=O)[C@H](CCC(N)=O)NC(=O)[C@@H](NC(C)=O)C(C)(C)S)[C@@H](C)O)C(C)(C)S)C(=O)N[C@@H](CC(N)=O)C(=O)N[C@@H](CCC(N)=O)C(N)=O
< 10 nM	< 1 h	< 10 nM	2 to 3 h	CC(=O)NCCCC[C@H](NC(=O)[C@](C)(CO)NC(=O)[C@H](Cc1ccc2ccccc2c1)NC(=O)[C@H](Cc1ccc(OCCN)cc1)NC(=O)[C@@H]1CSCC[C@H](NC(C)=O)C(=O)N[C@@H](CCC(N)=O)C(=O)N[C@@H]([C@@H](C)O)C(=O)N[C@@H](Cc2c[nH]c3ccccc23)C(=O)N[C@@H](CCC(N)=O)C(=O)N1)C(=O)N[C@@H](CC(N)=O)C(=O)NCC(N)=O
10 to 25 nM	> 6 h	< 10 nM	> 6 h	CC(=O)NCCOc1ccc(C[C@H](NC(=O)[C@@H](NC(=O)[C@H](CCC(N)=O)NC(=O)[C@H](Cc2c[nH]c3ccccc23)NC(=O)[C@@H](NC(=O)[C@H](CCC(N)=O)NC(=O)[C@@H](NC(C)=O)C(C)(C)S)[C@@H](C)O)C(C)(C)S)C(=O)N[C@@H](Cc2ccc3ccccc3c2)C(=O)NC(C)(C)C(=O)N[C@@H](CCC(=O)O)C(=O)N[C@@H](CC(N)=O)C(=O)N[C@@H](CC(N)=O)C(N)=O)cc1
25 to 100 nM	> 6 h	10 to 25 nM	> 6 h	CC(=O)NCCCC[C@H](NC(=O)C(C)(C)NC(=O)[C@H](Cc1cccc2ccccc12)NC(=O)[C@H](Cc1ccc(OCCN)cc1)NC(=O)[C@@H]1CSCC[C@H](NC(C)=O)C(=O)N[C@@H](CCC(N)=O)C(=O)N[C@@H]([C@@H](C)O)C(=O)N[C@@H](Cc2c[nH]c3ccccc23)C(=O)N[C@@H](CCC(N)=O)C(=O)N1)C(=O)N[C@@H](CC(N)=O)C(=O)NCC(N)=O
10 to 25 nM	< 1 h	< 10 nM	< 1 h	CC(=O)N[C@H]1CCSC[C@@H](C(=O)N[C@@H](Cc2ccc(OCCN)cc2)C(=O)N[C@@H](Cc2c[nH]c3ccccc23)C(=O)N[C@@H](CCC(C)C)C(=O)N[C@@H](CCC(=O)O)C(=O)N[C@@H](CC(N)=O)C(=O)NCC(N)=O)NC(=O)[C@H](CCC(N)=O)NC(=O)[C@H](Cc2c[nH]c3ccccc23)NC(=O)[C@H]([C@@H](C)O)NC(=O)[C@H](CCC(N)=O)NC1=O
< 10 nM	> 6 h	< 10 nM	> 6 h	CC(=O)NCCCC[C@H](NC(=O)C(C)(C)NC(=O)[C@H](Cc1ccc2ccccc2c1)NC(=O)[C@H](Cc1ccc(OCCNC(C)=O)cc1)NC(=O)[C@@H](NC(=O)[C@H](CCC(N)=O)NC(=O)[C@H](Cc1c[nH]c2ccccc12)NC(=O)[C@@H](NC(=O)[C@H](CCC(N)=O)NC(=O)[C@@H](NC(C)=O)C(C)(C)S)[C@@H](C)O)C(C)(C)S)C(=O)N[C@@H](CC(N)=O)C(=O)N[C@@H](CC(N)=O)C(N)=O
10 to 25 nM	3 to 6 h	< 10 nM	> 6 h	CC(=O)NCCCC[C@](C)(NC(=O)[C@H](Cc1ccc2ccccc2c1)NC(=O)[C@H](Cc1ccc(OCCNC(C)=O)cc1)NC(=O)[C@@H](NC(=O)[C@H](CCC(N)=O)NC(=O)[C@H](Cc1c[nH]c2ccccc12)NC(=O)[C@@H](NC(=O)[C@H](CCC(N)=O)NC(=O)[C@@H](NC(C)=O)C(C)(C)S)[C@@H](C)O)C(C)(C)S)C(=O)N[C@@H](CCC(=O)O)C(=O)N[C@@H](CC(N)=O)C(=O)NCC(N)=O
< 10 nM	> 6 h	< 10 nM	3 to 6 h	CC(=O)N[C@H]1CCSC[C@@H](C(=O)N[C@@H](Cc2ccc(OCCN)cc2)C(=O)N[C@@H](Cc2c[nH]c3ccccc23)C(=O)N[C@@](C)(CC(C)C)C(=O)N[C@@H](CCC(=O)O)C(=O)N[C@@H](CC(N)=O)C(=O)NCC(N)=O)NC(=O)[C@H](CCC(N)=O)NC(=O)[C@H](Cc2c[nH]c3ccccc23)NC(=O)[C@H]([C@@H](C)O)NC(=O)[C@H](CCC(N)=O)NC1=O
< 10 nM	1 to 2 h	< 10 nM	1 to 2 h	CC(=O)NCCCC[C@H](NC(=O)C(C)(C)NC(=O)[C@H](Cc1ccc2ccccc2c1)NC(=O)[C@H](Cc1ccc(OCCN)cc1)NC(=O)[C@@H]1CSCC[C@H](NC(C)=O)C(=O)N[C@@H](CCC(N)=O)C(=O)N[C@@H]([C@@H](C)O)C(=O)N[C@@H](Cc2c[nH]c3ccccc23)C(=O)N[C@@H](CCC(N)=O)C(=O)N1)C(=O)N[C@@H](CC(N)=O)C(=O)NCC(N)=O
10 to 25 nM	2 to 3 h	< 10 nM	< 1 h	CC(=O)NCCCC[C@H](NC(=O)C(C)(C)NC(=O)[C@H](Cc1ccc2ccccc2c1)NC(=O)[C@H](Cc1ccc(OCCN)cc1)NC(=O)[C@@H]1CSCC[C@H](NC(C)=O)C(=O)N[C@@H](CCC(N)=O)C(=O)N[C@@H]([C@@H](C)O)C(=O)N[C@@H](Cc2c[nH]c3ccccc23)C(=O)N[C@@H](CCC(N)=O)C(=O)N1)C(=O)N[C@@H](CCC(N)=O)C(=O)NCC(N)=O
< 10 nM	3 to 6 h	< 10 nM	3 to 6 h	CC(=O)NCCCC[C@H](NC(=O)[C@](C)(CCCN)NC(=O)[C@H](Cc1ccc2ccccc2c1)NC(=O)[C@H](Cc1ccc(OCCN)cc1)NC(=O)[C@@H]1CSCC[C@H](NC(C)=O)C(=O)N[C@@H](CCC(N)=O)C(=O)N[C@@H]([C@@H](C)O)C(=O)N[C@@H](Cc2c[nH]c3ccccc23)C(=O)N[C@@H](CCC(N)=O)C(=O)N1)C(=O)N[C@@H](CC(N)=O)C(=O)NCC(N)=O
10 to 25 nM	> 6 h	< 10 nM	> 6 h	CC(=O)NCCCC[C@](C)(NC(=O)[C@H](Cc1ccc2ccccc2c1)NC(=O)[C@H](Cc1ccc(OCCNC(C)=O)cc1)NC(=O)[C@@H](NC(=O)[C@H](CCC(N)=O)NC(=O)[C@H](Cc1c[nH]c2ccccc12)NC(=O)[C@@H](NC(=O)[C@H](CCC(N)=O)NC(=O)[C@@H](NC(C)=O)C(C)(C)S)[C@@H](C)O)C(C)(C)S)C(=O)N[C@@H](CCC(=O)O)C(=O)N[C@@H](CC(N)=O)C(=O)N[C@@H](C)C(N)=O
< 10 nM	> 6 h	< 10 nM	> 6 h	CC(=O)NCCCC[C@H](NC(=O)[C@](C)(CCCCNC(C)=O)NC(=O)[C@H](Cc1ccc2ccccc2c1)NC(=O)[C@H](Cc1ccc(OCCNC(C)=O)cc1)NC(=O)[C@@H](NC(=O)[C@H](CCC(N)=O)NC(=O)[C@H](Cc1c[nH]c2ccccc12)NC(=O)[C@@H](NC(=O)[C@H](CCC(N)=O)NC(=O)[C@@H](NC(C)=O)C(C)(C)S)[C@@H](C)O)C(C)(C)S)C(=O)N[C@@H](CC(N)=O)C(=O)N[C@@H](CC(N)=O)C(N)=O
< 10 nM	1 to 2 h	< 10 nM	< 1 h	CC[C@](C)(NC(=O)[C@H](Cc1ccc2ccccc2c1)NC(=O)[C@H](Cc1ccc(OCCN)cc1)NC(=O)[C@@H]1CSCC[C@H](NC(C)=O)C(=O)N[C@@H](CCC(N)=O)C(=O)N[C@@H]([C@@H](C)O)C(=O)N[C@@H](Cc2c[nH]c3ccccc23)C(=O)N[C@@H](CCC(N)=O)C(=O)N1)C(=O)N[C@@H](CCCCNC(C)=O)C(=O)N[C@@H](CC(N)=O)C(=O)NCC(N)=O
